The assay deals with CPP32. Kind of assay: Assay for dATP-dependent activation of CPP32 protease (cleavage of in vitro translated 35S-labeled CPP32 in HeLa S-100). In kind it is biochemical, hamster. To be noted: 1 mM nucleotide, 30° C., 1 hr. As to the method:
The samples were subjected to SDS-PAGE and transferred to a nitrocellulose filter. The filter was exposed to film for 16 hours at room temperature. In FIG. 2B, a 50 μl aliquot of HeLa S-100 (250 μg) was incubated with each aliquot of 6 μl hamster liver nuclei at 37° C. for 2 hr in the presence of 1 mM indicated nucleotide. The DNA was isolated, analyzed by 2% agarose gel electrophoresis and visualized by ethidium bromide staining.
To test the nucleotide specificity for activation of CPP32 and DNA fragmentation, HeLa cell S-100 was incubated with in vitro translated, ^35S-labeled CPP32 in the presence of 1 mM of various nucleotides (FIG. 2A).
A PCR fragment encoding amino acids 29-277 of hamster CPP32 [Wang et al. (1996) supra] was cloned into NdeI and BamHI sites of pET 15b vector (Novagen, Madison, Wis.). The resulting fusion protein of six histidines with hamster CPP32 (amino acids 29-277) was translated in a TNT T7 transcription/translation kit (Promega, Madison, Wis.) in the presence of ^35S-methionine according to the manufacturer's instructions. The translated protein was passed through a 1 ml nickel affirmity column (Qiagen, Chatsworth, Calif.) equilibrated with buffer A. After washing the column with 10 ml of buffer A, the translated CPP32 was eluted with buffer A containing 250 mM imidazole. Human SREBP-2 was translated in a TNT SP6 transcription/translation kit as described [Wang et al. (1995) [Hua et al. (1993) Proc. Natl. Acad. Sci. USA 90, 11603-11607]. Full length human PARP cDNA [Chemey et al. (1987) Proc. Natl. Acad. Sci. USA 84, 8370-8374] was cloned into SmaI and EcoRI sites of pBK-CMV vector (Stratagene, La Jolla, Calif.) and translated in a TNT T7 transcription/translation kit [Promega, Madison, Wis.]. The translated SREBP-2 and PARP (200 μl each) were purified by passing each translation mixture through a 10-ml Sephadex G-25 gel-filtration column equilibrated with buffer A. The translated proteins contained within the exclusion volume of the column were collected.
CPP32 was translated and purified as described above. Aliquot of 3 μl of the in vitro translated CPP32 was incubated with the indicated protein fraction, nucleotides, and 1 mM additional MgCl2 at 30° C. for 1 hour in a final volume of 20 μl of buffer A. At the end of the incubation, 7 μl of 4×SDS sample buffer was added to each reaction. After boiling for 3 min, each sample was subjected to a 15% SDS-polyacrylamide gel electrophoresis (SDS-PAGE). The gel was transferred to a nitrocellulose filter which was subsequently exposed to a Kodak X-OMAT AR X-ray film (Eastman Kodak, Rochester, N.Y.) for 16 hr at room temperature.

As for `Nc1ncnc2c1ncn2[C@H]1C[C@H](O)[C@@H](COP(=O)(O)OP(=O)(O)OP(=O)(O)O)O1` [dATP, deoxyadenosine-5-triphosphate], the “cleavage of 35S-labeled CPP32 (nucleotide specificity)” value is on record as “Cleavage occurred”.

(Values after patent US6558900B2, “Regulation of apoptosis and in vitro model for studies thereof” (Emory University, priority 1996, dated 2003).)
